Tests used:
[1] = test system: CHO-Target 1 cells; assay: pH shift cytotoxicity assay / HCl switch RTCA killing assay (xCELLigence); format: cell-based; conditions: added about 3 hours after effector cells, E/T 1:1
Procedure: The cytotoxic activity of transduced T cells before and after pH change by addition of NaHCO3 or NaOH was measured using the xCELLigence System. Briefly, one day before the experiment, target cells (CHO cells stably transfected with a construct to express Target 1 on the cell surface (CHO-Target 1 cells)), were seeded into a 96-well E-plate (ACEA; San Diego, CA) at 10,000 cells/well with X-VIVO 15 media containing 40 mM HEPES and 40 mM PIPES, pH 6.7. Cryopreserved effector cells previously transduced with either lentiviral particles containing the nucleic acid encoding T1B or C1 (T1BVP and C1VP, respectively) produced as discussed above, were thawed and cultured for two days in X-VIVO 15 media containing 100 IU/mL of IL-2 (R&D Systems, Minneapolis, MN). On the day of the experiment, cells transduced with T1BVP or C1VP were washed and resuspended in X-VIVO 15 media containing 40 mM HEPES and 40 mM PIPES, pH 6.7 and then added into the experimental wells at effector cell/target cell ratios (E/T) of 1:1.
Impedance readings measured on the xCELLigence System (ACEA) were taken every 5 minutes and reported as the Cell Index (CI) to quantitate cell confluency as a measure of cell proliferation/cell lysis. Approximately 3 hours after effector cell addition, 8 μl of 7.5% NaHCO3 or 14 μl of 0.5 M NaOH was added into the wells with X-VIVO 15 media containing 40 mM HEPES and 40 mM PIPES, pH 6.7 to increase the pH from 6.7 to 7.4. Impedance readings were continued for approximately 20 hours after effector cell addition. Percentage of specific cytolysis was calculated as follows ((CI Target+C1VP transduced effector T cells)−(CI Target+T1BVP transduced effector T cells))/(CI Target+C1VP transduced effector T cells)×100.
The cytotoxic activity of transduced T cells before and after pH change by addition of HCl was measured using the xCELLigence System. Briefly, one day before the experiment, CHO-Target 1 cells were seeded into a 96 well E-plate at 10,000 cells/well with X-VIVO 15 media containing 40 mM HEPES and 40 mM PIPES, pH 7.4. Cryopreserved effector cells previously transduced with either C1VP or T1BVP, were thawed and cultured for two days in X-VIVO 15 media containing 100 IU/mL of IL-2. On the day of the experiment, cells transduced with T1BVP or C1VP were washed and resuspended in X-VIVO 15 media containing 40 mM HEPES and 40 mM PIPES, pH 7.4 and then added into experimental wells at effector cell/target cell ratios (E/T) of 1:1.
Impedance readings were taken every 5 minutes and reported as the Cell Index (CI). […] Impedance readings were continued for approximately 20 hours after effector cell addition. Percentage of specific cytolysis was calculated as follows ((CI Target+C1VP transduced effector T cells)−(CI Target+T1BVP transduced effector T cells))/(CI Target C1VP)×100.

[2] = test system: cathepsin B, L, S, K, V, and D; conditions: 1 ml/mouse 1 M ip, 30 min post administration, n=3, vs PBS
Text: Fortunately, the relative protease activity of cathepsin is higher at lower pH and lower at higher pH. Therefore, the measurement of intratumoral cathepsin activity can serve as a surrogate measure of the pH of the tumor microenvironment. To measure in vivo activities of cathepsin B, L, S, K, V, and D, the near-infrared ProSense 750 FAST probe (PerkinElmer) was used.
Mice were handled in accordance with Institutional Animal Care and Use Committee approved protocols. Subcutaneous (sc) Chinese Hamster Ovary (CHO) tumor xenografts were established in the hind flank of 12-14 week old female B-NSG mice (NOD-PrkdcscidIl2rgtm1/Bcgen (Beijing Biocytogen Co. Ltd.). Briefly, cultured CHO cells (ATCC, Manassas, VA) were washed in DPBS (ThermoFisher), counted, resuspended in cold DPBS and mixed with an appropriate volume of Matrigel ECM (Corning; final concentration 5 mg/mL) at a concentration of 1.5×10^6 cells/200 μl on ice.
Animals were prepared for injection using standard approved anesthesia with hair removal (Nair) prior to injection. 200 μl of the cell suspension in ECM was injected sc into the rear flanks of the mice. Once tumors were palpable, the tumors were measured using calipers 2 times/week. Tumor volume was calculated using the following equation: (longest diameter*shortest diameter^2)/2. […]

[3] = 1.5 hours post ip administration, n=3, relative to PBS-treated mice
Text: Phenol red is a pH indicator which undergoes a pH-dependent color transition. […] A solution of phenol red has a yellow color at a pH of 6.4 or below, an orange color around pH 7.0, a red color around pH 7.4, and a purple color above pH 7.8.
The CHO xenograft tumor was excised from each mouse. The xenograft tumors were split into two halves with a scalpel and placed on a petri dish. The tumor tissue halves were then cut/sliced repeatedly using the scalpel. Water or 0.05% phenol red solution (50 mg phenol red/100 ml water) was added dropwise to each tumor half, respectively. The color was noted and images were taken of the treated tumor xenografts and of the phenol red solution remaining on the petri plate once the tumor xenograft samples were removed.

[4] = 50-milliliter bolus; cited from earlier work
[5] = test system: CHO-Target 1; assay: xCELLigence cytotoxicity of MRB-CAR T cells at pH 6.7 vs pH 7.4, CHO-Target 1; format: cell-based; conditions: E/T 3:1, 1:1, 0.3:1; about 40 hours
Procedure: The cytotoxic activity of the candidate MRB-CARs against target cells expressing either Target 1 or Target 2 (CHO-Target 1 and CHO-Target 2, respectively) was analyzed at a pH of 7.4 (normal tissue) or a pH of 6.7 (reduced pH of a tumor microenvironment) by xCELLigence System (ACEA). Briefly, target cells expressing Target 1 or Target 2 were seeded to a 96-well E-plate at 20,000 cells/well with tumor conditional or normal medium one day before the experiment. Effector cells were rested for two days in human T cell medium containing 100 IU/mL of IL-2 and added into experimental wells containing Target cells at effector cell/target cell ratios (E/T) of 3:1, 1:1, and 0.3:1.
Impedance readings were taken every 5 minutes for approximately 40 hours after effector cell addition and impedance was reported as the Cell Index (CI). Percentage of specific cytolysis was calculated as follows ((CI Target+Control virus transduced effector T cells)−(CI Target+effector T cells transduced with CARs directed to Target 1 or Target 2))/(CI Target+Control virus transduced effector T cells)×100.

O=C([O-])O.[Na+] [sodium bicarbonate]
effect on cytotoxic activity of MRB-CAR T cells of raising media pH from 6.7 to 7.4 [1]: inhibited the cytotoxic activity
intratumoral cathepsin activity (RFU), surrogate of tumor microenvironment pH [2]: decreased cathepsin activity
color of phenol red indicator on excised tumor tissue [3]: from yellow/orange to red
rise of serum pH [4]: approximately 0.1 pH unit

B1: MRB-CAR T1A: anti-Target 1 microenvironment restricted CAR; VH SEQ ID NO:281, Linker 1, VL SEQ ID NO:282; CD28 stalk/TM, ICΔ, CD3Z (protein)
chain: EVQLVQSGAEVKKPGATVKISCKVSGYSFWGATMNWIRQPPGKGLEWIGLIKPSNGGTSYNQKFKGRVTISADKSISTAYLQWSSLKASDTAMYYCAHGHYESYEAMDYWGQGTLVTVSSGGGGSGGGGSGGGGSDIQMTQSPSSLSASVGDRVTITCKASQDVVSAVAWYQQKPGQAPRLLIYWQDTRHTGVPSRFSGSGSGTEFTLTISSLQPDDFATYYCQEHFSPPLTFGQGTKVEIKFWVLVVVGGVLACYSLLVTVAFIIFWVRSKRSRLLHSDYMNMTPRRPGPTRKHYQAYAAARDFAAYRSRVKFSRSADAPAYQQGQNQLYNELNLGRREEYDVLDKRRGRDPEMGGKPRRKNPQEGLYNELQKDKMAEAYSEIGMKGERRRGKGHDGLYQGLSTATKDTYDALHMQALPPR
notes: anti-Target 1 microenvironment restricted CAR; CD28 stalk/TM, ICΔ, CD3Z
cytotoxic activity on target cells at pH 6.7 versus pH 7.4 [5]: more effective at lysing target cells at a pH of 6.7 than at a pH of 7.4

Reference: patent publication US12258574B2, “Methods and compositions for transducing lymphocytes and regulating the activity thereof” (Exuma Biotech Corp., priority 2016, dated 2025)
